From patent publication US10662225B2, “Backbone cyclized inhibitory peptides of myeloid differentiation factor 88 (MyD88)” (Yissum Research Development Company of the Hebrew …, priority 2016, dated 2020)
Numbered stars: 1 amine (or outer) side, 2 acyl side, 3 side chain; on linkers, the order of the positions; unused ones are H or OH. Bridge positions count the residues as written; N and C are the ends. Square brackets hold non-standard residues; d marks the D form. Ends that are not written are not given here. CO = O=C([*:1])[*:2]

What was measured:
[1] = Metabolic stability in plasma (quantitative HPLC); format: in vitro ADME, human; conditions: plasma; 4×4MyDI: first two hours
Experimental: FIGS. 17A and 17B. 4×4MyDI is metabolically stable in comparison to the linear MyDI peptide. 4×4MyDI vs. linear MyDI heptapeptide were incubated independently in either human plasma […] or human plasma supplemented with Brush Border Membrane Vesicles (BBMV, 18B). At various time points the solution was sampled and the amount of remaining compound was determined by quantitative HPLC.
Peptide backbone cyclization confers metabolic stability on peptides that are inherently susceptible to degradation by proteases. […] The stability of the compounds was then tested in plasma enriched with Brush Border Membrane Vesicles (BBMV). This system models the degradative conditions of the intestine.

[2] = biological target: T1, MyD88 (Mus musculus, UniProt P22366); assay: IL-18-induced IFN-γ secretion by MOG35-55 specific T cells (ELISA); format: cell-based
T1 construct: endogenous in cells; host or cells: MOG35-55 specific T cells
Experimental: FIG. 1. MyD88 inhibitor linear peptide down-regulates IL-18-induced T-cell interferon gamma (IFN-γ) production in vitro. A: MOG35-55 specific T cells were incubated with MIP (SEQ ID NO: 1), or the scrambled version of MIP (MIPscr, PTDLVRG, SEQ ID NO: 5), or without peptide (control) for 2 h. T-cells were then plated with (right side of graph) or without (left side of graph) 30 ng/ml IL-18 for 22 h and IFN-γ production was measured by ELISA. Asterisks denote P<0.0001 compared to no inhibitor peptide or MIPscr. B: MOG35-55 specific T cells were incubated with MIP (SEQ ID NO: 1), or the scrambled version of MIP (MIPscr, SEQ ID NO: 5), or without peptide (control) for 2 h. T-cells were then plated with (right side of graph) or without (left side of graph) 30 ng/ml IL-18 for 22 h in the presence of irradiated splenocytes and MOG35-55 peptide ([…], SEQ ID NO: 4) (5 μg/ml). IFN-γ production was measured by ELISA. Asterisks denote P<0.0001 compared to no inhibitor peptide.
To investigate the ability of the MyD88 inhibitor linear peptide (termed either MIP or MyDI) to inhibit MyD88 activity in T-cells in vitro, the secretion of IFN-γ by MOG-specific T cells in response to IL-18 stimulation was tested. The signaling of IL-18 trough the IL-18 receptor is MyD88 dependent. […] Cells were then stimulated with IL-18, and IFN-γ levels in the supernatants were analyzed after 24 h. […]

[3] = system: NFκB p65 nuclear translocation; assay: NFκB p65 nuclear translocation in HeLa cells stimulated with TNFα or IL-1β; format: cell-based; conditions: HeLa cells
Experimental: FIG. 6. HeLa assay showing specificity of MyD88 inhibition. HeLa cells were stimulated with recombinant TNFα or IL-1β and NFkB localization was determined with anti-p65 conjugated to rhodamine. The percent of cells with nuclear localization was determined and is shown in the bar graphs on the right. 6A: Top row, HeLa cells transduced with control shRNA. Second row, shRNA knock-down of MyD88. 6B: Top row, HeLa cells treated with MyD88 inhibitor linear peptide. Bottom row, HeLa cells treated with scrambled control version of the MyD88 inhibitor linear peptide (SEQ ID NO: 5).
FIG. 7. HeLa assay showing specificity of MyD88 inhibition by 4×4MyDI. HeLa cells were stimulated with recombinant TNFα or IL-1b and NFkB localization was determined with anti-p65 conjugated to rhodamine. The percent of cells with nuclear localization was determined, and is shown in the bar graphs on the right. Top row, HeLa cells with no pre-treatment. Second row, HeLa cells pre-treated for 30 min with the backbone cyclic 4×4MyDI compound.
Lead compounds were further tested in vitro to confirm the specificity of the inhibition. A fluorescence-based in vitro activity assay that determines the degree of activation of the transcription factor NFκB was established. In this assay, cells are treated with either TNFα or IL-1b, both inflammatory cytokines that activate NFκB. Upon activation, the p65 unit of the NFκB transcription factor re-locates from the cytoplasm to the nucleus. Using fluorescently-tagged antibodies to p65, the cytoplasmic vs. nuclear localization of the factor is determined. Importantly, since the signaling of IL-1b, but not TNFα, is dependent on MyD88, this assay can establish the specificity of the inhibition achieved using the lead compounds.
Cells were activated with either IL-1β (the signaling of the IL-1 receptor is dependent on MyD88), or with TNFα (signaling of its receptor is independent of MyD88). The activation was measured by the translocation of NFκB from the cytoplasm to the nucleus. As a positive control, a stable MyD88 knock-down cell line was established using lentiviral encoded shRNA.
Using the same system, when cells were treated with the backbone cyclic peptide 4×4MyDI, activation by IL-1β was blocked, however when treated with TNFα the activation was not inhibited.

[4] = biological target: T2, MyD88 TIR domain (Homo sapiens, UniProt Q99836); assay: Competition assay: binding of biotinylated linear BB loop peptide to MyD88 TIR domain; conditions: different concentrations
T2 construct: made in house
Experimental: FIG. 9. 4×4MyDI binds to the BB loop region of the MyD88 TIR domain. A 96 well plate was coated with recombinant MyD88 (8 μg/ml) in coating buffer vs. buffer alone, and wells were blocked with 1% BSA. Biotinylated linear peptide was added to all wells (125 μg/ml) followed by streptavidin-HRP and substrate. The signal of linear peptide bound to its target was inhibited by incubation with the 4×4MyDI (*P<0.05) but not by incubation with the scrambled version of the linear peptide (SEQ ID NO: 5).
The ability of the 4×4MyDI compound to bind to the target region (the BB loop) of the MyD88 TIR domain, was evaluated using a newly-designed assay. For this goal a competition assay was established that tests the ability of the 4×4MyDI compound to prevent the binding of the biotinylated linear BB loop peptide to the MyD88 TIR domain. The MyD88 TIR domain was produced as a recombinant protein fused to the SUMO3 protein (Accession # NP_008867), purified, and attached to a 96 well plate. Binding of biotinylated RDVLPGT (SEQ. ID NO: 1) peptide was detected using streptavidin conjugated to horse radish peroxidase (HRP) followed by the addition of HRP substrate.

[5] = system: MyD88-dependent signaling; assay: TNFα production by THP-1 derived macrophages stimulated with PAM3csk; format: cell-based, human; conditions: THP-1 macrophages, PAM3csk overnight
Experimental: FIG. 5. Human monocytic THP-1 cells were differentiated to macrophages and were stimulated with PAM3csk overnight in the absence or presence of the cyclic 4-carbon bridge peptide or 6-carbon bridge peptide. TNFα levels in the supernatants were determined by ELISA.
Both cyclic peptides were synthesized with the addition of a tryptophan group to the N-terminus to enable accurate quantification of the molecules.

[6] = system: MyD88-dependent signaling; assay: Library screen: TNFα production by U937 macrophage cells stimulated with PAM3Csk; format: cell-based, human; conditions: PAM3Csk overnight, peptide concentration estimated 2-4 μM
Experimental: FIG. 4. Screening results of the peptide library of 16 compounds. Human macrophage U937 cells were stimulated with PAM3csk overnight in the absence or presence of each of the cyclic peptides. Human TNFα levels in the supernatants were determined by ELISA. […].
The backbone cyclic library of 16 compounds synthesized in Example 3 was screened for inhibition of MyD88-dependent signaling through innate immune receptors employing the human macrophage cell line U937. […] The concentration of the cyclic peptides in the library was estimated to be 2-4 μM.

T1 sequence (P22366 whole entry): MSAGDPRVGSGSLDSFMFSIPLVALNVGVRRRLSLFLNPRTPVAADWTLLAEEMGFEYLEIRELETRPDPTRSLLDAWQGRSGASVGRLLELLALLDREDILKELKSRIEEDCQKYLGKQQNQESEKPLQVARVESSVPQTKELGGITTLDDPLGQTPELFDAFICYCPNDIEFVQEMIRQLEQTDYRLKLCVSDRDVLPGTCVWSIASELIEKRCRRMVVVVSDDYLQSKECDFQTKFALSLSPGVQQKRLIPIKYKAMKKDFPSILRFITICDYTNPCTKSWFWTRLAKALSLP
T2 sequence (Q99836 151-296): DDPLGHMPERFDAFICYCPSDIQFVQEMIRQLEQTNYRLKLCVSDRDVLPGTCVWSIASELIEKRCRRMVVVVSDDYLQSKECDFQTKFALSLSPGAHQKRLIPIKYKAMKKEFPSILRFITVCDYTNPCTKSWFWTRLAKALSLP

RDVLPGT [MIP, Arg-Asp-Val-Leu-Pro-Gly-Thr, reference compound]
stability in plasma [1]: disappears rapidly | reduction of the level of IFN-γ ([2]; T cells with APC presenting MOG35-55 peptide plus IL-18): 30-35%

PTDLVRG [MIPscr, reference compound]
Percent p65 nuclear translocation, TNFα ([3]; TNFα (MyD88 independent)): 90% | Percent p65 nuclear translocation, No stimulation ([3]; no stimulation): 0% | IL-18-stimulated IFNγ level ([2]; 20 mM peptide (so in the source), IL-18 stimulation, supernatants after 24 h): had no effect | inhibition of binding of the biotinylated peptide to the MyD88 TIR domain [4]: did not inhibit

6×6 bridge peptide: backbone cyclic peptide of Formula IV with m=6, n=6 (W[Gly(Nα-(CH2)6-NH2)]RDVL[Gly(Nα-(CH2)6-NH2)]GT; bridge 2-7 via CO)
inhibition of TNFα production [5]: inhibited the human macrophage production of TNFα | MyD88 inhibitory activity (reduction in TNFα production) [6]: greatest MyD88 inhibitory activity
